Measured values reported in US10336684B2, “Phenyl-(aza)cycloalkyl carboxylic acid GPR120 modulators” (BRISTOL-MYERS SQUIBB COMPANY, priority 2014, dated 2019).

Target: human GPR120 (Homo sapiens (Human), UniProt Q5NUL3)
Experiment: GPR120 pERK AlphaScreen SureFire assay (human GPR120 pERK assay)
Format: cell-based
Conditions: CHOA12 or CHO-K1 cells stably transfected with short form of human GPR120, 100% = 50 μM linolenic acid
Description: GPR120 activity was monitored by measuring phosphorylation of ERK (pERK), since G protein receptors are known to activate the ERK signaling cascade either directly and/or through recruitment of arrestin that serves as a scaffold for downstream signaling events.
GPR120 pERK AlphaScreen SureFire Assay
The human and mouse GPR120-mediated intracellular phosphorylated ERK assays were established using CHOA12 cells stably transfected with the short form of human or mouse GPR120 receptor. Cells were cultured in growth medium consisting of F-12 media (Invitrogen Cat. #11765) with 5% Charcoal/Dextran FBS (Invitrogen Cat. #12676-029), 500 μg/mL GENETICIN® (Life Technologies Cat. #10131-027) and 250 μg/mL Zeocin (Invitrogen Cat. #R250-01). Cells were cryo preserved at a concentration of 2×10^7 cells/mL, in 90% Charcoal/Dextran FBS and 10% DMSO, and frozen in liquid nitrogen at a low passage number.
For the pERK assay, 2×10^7 cells/mL cryopreserved human and mouse cells were thawed rapidly in a 37° C. water bath and added to a T-225 flask containing 50 mL growth medium. The flasks were placed in a tissue culture incubator overnight (37° C., 5% CO2). The next day, cells were harvested with trypsin (Gibco Cat. #25300-054), resuspended in serum-containing growth medium and counted using a Cellometer and volume adjusted to a concentration of 0.6×10^6 cells/mL. Cells were plated into 384-well clear bottom tissue culture plates (BD Cat. #353962) at 50 μL/well, for a density of 30,000 cells/well using a MULTIDROP® and incubated for 16-18 hours (overnight) at 37° C. with 5% CO2. The next day, cells were serum starved in 30 μL of F-12 media without any serum or antibiotics for 2 hours at 37° C.
Test compounds were 3-fold, 11-point serially diluted in DMSO in a REMP assay plate (Matrix Cat. #4307) by Tecan and 5 μL was transferred into an ECHO source plate (Labcyte Cat. #LC-0200). Cells were then stimulated with 50 nL of compound dilutions using ECHO liquid handler for 7 minutes at 37° C. Compounds ranged from final assay concentrations of 33.33 μM to 0.56 nM.
The media was then dumped and cells lysed with 20 μL of 1× Lysis buffer from the AlphaScreen SureFire Phospho-ERK 1/2 Kit (Perkin Elmer Cat. #6760617M). The lysis buffer was diluted 5-fold with water before use. The plate was agitated on a shaker for 10 minutes after which 2 μL was transferred into a 384-well white proxiplate (Perkin Elmer Cat. #6008289). The SureFire assay reagent mix was prepared by mixing 60 parts Reaction Buffer, 10 parts Activation Buffer, 1 part Donor Beads, 1 part Acceptor Beads (Perkin Elmer Cat. #TGRES10K). 3.5 μL/well of this reagent mix was manually added to the proxiplate with a multichannel pipettor. Plates were spun down at 1000 rpm for 2 minutes, followed by light-protected incubation at room temperature for 2 hours. The plates were read on the Alpha-technology compatible Envision multilabel plate reader using AlphaScreen protocol according to manufacturer's specifications. The agonist effect of compounds was expressed as 100×(average sample-average blank)/(average total−average blank) where sample is the luminescence activity in the presence of test compound, blank is equal to the luminescence activity in the presence of DMSO control and the total is signal induced by 50 μM linolenic acid as reference compound. Activation data for the test compound over a range of concentrations was plotted as percentage activation of the test compound (100%=maximum response). After correcting for background, EC50 values were determined. The EC50 is defined as the concentration of test compound which produces 50% of the maximal response and was quantified using the 4 parameter logistic equation to fit the data.
The human and mouse GPR120-mediated intracellular phosphorylated ERK assays were also established using CHO-K1 cells stably transfected with the short form of human or mouse GPR120 receptor. […]

Chain of human GPR120 (Q5NUL3 whole entry): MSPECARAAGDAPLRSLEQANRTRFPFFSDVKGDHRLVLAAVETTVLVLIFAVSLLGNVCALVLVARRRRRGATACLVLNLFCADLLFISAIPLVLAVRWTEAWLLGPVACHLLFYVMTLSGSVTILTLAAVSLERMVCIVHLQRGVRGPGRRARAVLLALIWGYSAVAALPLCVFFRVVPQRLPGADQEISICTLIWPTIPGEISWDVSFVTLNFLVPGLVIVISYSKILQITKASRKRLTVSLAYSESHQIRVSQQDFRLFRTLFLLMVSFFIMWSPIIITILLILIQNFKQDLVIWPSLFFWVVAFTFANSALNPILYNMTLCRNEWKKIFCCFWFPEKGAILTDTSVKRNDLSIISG

SMILES | EC50 [µM]
O=C(O)[C@@H]1C[C@H]1CCc1ccc(N2CCC[C@@H](c3ccccc3)C2)cc1 [Example 55] | 6.26
O=C(O)[C@@H]1C[C@H]1CCc1ccc(N2CCC[C@H](c3ccccc3)C2)cc1 [Example 56] | 4.84
O=C(O)COCCc1ccc(N2CCC(Oc3ccccc3)C2)cc1 (stereo not drawn) [Example 59] | 5.27
O=C(O)[C@@H]1C[C@H]1CCc1ccc(N2CCCC(Oc3ccccc3)CC2)cc1 (stereo partly drawn) [Example 62] | 10.3
O=C(O)COCCc1ccc(N2CC(Oc3ccccc3)C2)cc1 [Example 63] | 4.32

Compounds with a lower EC50, results first:

EC50 [µM] | SMILES
1.54 | O=C(O)[C@@H]1C[C@H]1CCc1ccc(N2CCC[C@H](Oc3ccc(F)cc3)C2)cc1 [Example 52]
3.61 | O=C(O)[C@H]1C[C@@H]1CCc1ccc(N2CCC[C@@H](c3ccccc3)C2)cc1 [Example 53]
1.34 | O=C(O)[C@H]1C[C@@H]1CCc1ccc(N2CCC[C@H](c3ccccc3)C2)cc1 [Example 54]
2.26 | O=C(O)COCCc1ccc(N2CCCC(c3ccccc3)C2)cc1 (stereo not drawn) [Example 57]
4.09 | O=C(O)CCCCc1ccc(N2CCC(Oc3ccccc3)CC2)cc1 [Example 58]
0.22 | O=C(O)CCCCc1ccc(N2CC[C@H](Oc3ccccc3)C2)cc1 [Example 60]
3.38 | O=C(O)CCCCc1ccc(N2CC[C@@H](Oc3ccccc3)C2)cc1 [Example 61]
